ChEMBL document CHEMBL1201862, “PubChem BioAssay data set” (2004)
Activity calls are given as the source filed them.

What was measured:
[1] = general mammalian cell viability loss – activator set, cherry-pick, cytotoxicity control for miR-122 modulator project, dose response (AID 720690); format: functional, cell-based;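 further: HEK293T human cells scored for general mammalian cytotoxicity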
[2] = viability of PTEN-deleted HCT116 cells – cell-based, HCT116 PTEN knockout, dose response (AID 1047); format: functional;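 further: HCT116 colon tumor cells with PTEN knocked out; cells exposed to compound for 60 hours before readout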
Cytochrome P450 3A4 = Cytochrome P450 3A4 (Homo sapiens, UniProt P08684);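 further: CYP3A4 tested as one member of a cytochrome P450 panel screen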
Chain of Cytochrome P450 3A4 (P08684 whole entry): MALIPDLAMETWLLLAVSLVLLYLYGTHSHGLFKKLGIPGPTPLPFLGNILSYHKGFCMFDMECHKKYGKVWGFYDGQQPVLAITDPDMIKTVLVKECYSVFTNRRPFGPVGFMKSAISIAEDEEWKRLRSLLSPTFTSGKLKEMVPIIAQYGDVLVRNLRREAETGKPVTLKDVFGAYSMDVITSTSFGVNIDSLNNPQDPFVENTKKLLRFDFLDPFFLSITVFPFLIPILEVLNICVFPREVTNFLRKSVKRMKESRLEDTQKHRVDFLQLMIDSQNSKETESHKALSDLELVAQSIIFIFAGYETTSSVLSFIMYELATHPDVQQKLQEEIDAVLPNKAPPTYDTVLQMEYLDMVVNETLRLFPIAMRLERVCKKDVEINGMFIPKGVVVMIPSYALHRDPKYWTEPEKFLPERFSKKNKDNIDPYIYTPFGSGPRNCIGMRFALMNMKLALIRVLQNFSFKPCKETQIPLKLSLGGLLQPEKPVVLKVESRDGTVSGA

[3] = microbe, parasite or virus in culture; format: functional; conditions: Mycobacterium tuberculosis
Protein RecA = target: T1, Protein RecA (Mycobacterium tuberculosis, UniProt P9WHJ3); assay: Fluorescence Cell-Free Homogeneous Dose Retest to Identify Inhibitors of RecA-Intein Splicing Activity. [Related pubchem assays (depositor defined):AID2097, AID2223, AID489010, AID492950]; format: functional
T1 sequence (P9WHJ3 whole entry): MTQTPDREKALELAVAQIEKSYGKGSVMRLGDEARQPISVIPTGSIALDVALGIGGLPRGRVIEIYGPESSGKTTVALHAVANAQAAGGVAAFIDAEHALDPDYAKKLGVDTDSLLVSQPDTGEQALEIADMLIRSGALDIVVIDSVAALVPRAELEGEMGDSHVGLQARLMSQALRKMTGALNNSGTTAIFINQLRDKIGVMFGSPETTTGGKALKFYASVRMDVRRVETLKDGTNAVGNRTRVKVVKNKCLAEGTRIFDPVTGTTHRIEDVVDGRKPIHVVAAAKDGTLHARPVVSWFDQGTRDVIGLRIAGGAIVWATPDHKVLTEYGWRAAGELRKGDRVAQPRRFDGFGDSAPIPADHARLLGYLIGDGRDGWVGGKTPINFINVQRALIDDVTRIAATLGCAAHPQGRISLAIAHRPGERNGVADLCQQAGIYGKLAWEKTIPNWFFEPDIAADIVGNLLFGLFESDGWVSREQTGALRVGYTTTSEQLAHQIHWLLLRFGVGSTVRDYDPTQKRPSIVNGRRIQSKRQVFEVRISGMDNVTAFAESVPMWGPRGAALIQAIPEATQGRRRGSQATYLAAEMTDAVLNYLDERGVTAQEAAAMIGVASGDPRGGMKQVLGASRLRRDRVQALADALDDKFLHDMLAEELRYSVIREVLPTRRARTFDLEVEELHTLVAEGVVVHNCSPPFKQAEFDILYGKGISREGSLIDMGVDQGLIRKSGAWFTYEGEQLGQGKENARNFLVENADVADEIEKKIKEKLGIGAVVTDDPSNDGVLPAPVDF

[4] = general mammalian cell viability loss – inhibitor set, cherry-pick, set 2, cytotoxicity control for miR-122 modulator project, dose response (AID 720697); format: functional, cell-based
[5] = target: T2, Replicative DNA helicase DnaB (Mycobacterium tuberculosis, UniProt P9WMR3); assay: DnaB intein splicing inhibitors, dose response, biochemical, cell-free fluorescence (AID 449749); format: functional
T2 sequence (P9WMR3 whole entry): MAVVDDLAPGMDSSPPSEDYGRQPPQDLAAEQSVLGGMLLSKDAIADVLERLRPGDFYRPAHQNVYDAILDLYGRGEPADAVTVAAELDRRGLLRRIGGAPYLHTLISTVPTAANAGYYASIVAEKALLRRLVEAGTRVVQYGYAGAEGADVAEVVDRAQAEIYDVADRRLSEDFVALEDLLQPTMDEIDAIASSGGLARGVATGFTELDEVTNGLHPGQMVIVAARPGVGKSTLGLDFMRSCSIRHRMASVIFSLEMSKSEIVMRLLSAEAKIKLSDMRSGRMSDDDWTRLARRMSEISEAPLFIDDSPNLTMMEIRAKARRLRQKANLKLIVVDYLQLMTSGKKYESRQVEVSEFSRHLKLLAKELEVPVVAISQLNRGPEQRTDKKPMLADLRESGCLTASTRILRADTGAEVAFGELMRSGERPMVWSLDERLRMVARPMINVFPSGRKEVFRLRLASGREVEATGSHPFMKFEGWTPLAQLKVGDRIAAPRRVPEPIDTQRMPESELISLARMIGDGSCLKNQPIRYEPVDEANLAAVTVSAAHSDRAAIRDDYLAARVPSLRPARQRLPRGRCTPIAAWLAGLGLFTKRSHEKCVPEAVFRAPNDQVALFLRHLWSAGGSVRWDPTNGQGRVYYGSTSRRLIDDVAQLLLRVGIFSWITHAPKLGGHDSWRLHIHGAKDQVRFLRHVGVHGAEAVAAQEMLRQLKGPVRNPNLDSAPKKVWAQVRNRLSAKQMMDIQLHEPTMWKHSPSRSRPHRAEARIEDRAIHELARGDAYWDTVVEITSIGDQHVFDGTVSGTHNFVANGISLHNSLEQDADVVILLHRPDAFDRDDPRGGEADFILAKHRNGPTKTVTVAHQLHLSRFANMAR

[6] = activation of miR-122 Renilla sensor silencing – cell-based, Huh7 psiCHECK-miR122, Renilla luciferase, cherry-picked, dose response (AID 651956); format: functional;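 further: huh7 hepatoma cells stably carrying a psiCHECK-2 miR-122 sensor plasmid; renilla luciferase signal reporting endogenous miR-122 activity after 48 h compound exposure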
[7] = viability of HCT116 lacking mutant beta-catenin – cell-based, human colon tumor, dose response (AID 1045); format: functional;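 further: HCT116 colon tumor cells with beta catenin knocked out; cells exposed to compound for 60 hours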
[8] = Luminescent dose response cell-based high throughput screening assay for inhibitors of the Janus kinase 2 mutant JAK2V617F. [Related pubchem assays: 1446 (Primary screen.), 1521 (Confirmation assay.), 1486 (Counter screen.)]; format: functional
Cytochrome P450 1A2 = target: T3, Cytochrome P450 1A2 (Homo sapiens, UniProt P05177);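 further: PubChem cytochrome P450 panel assay, CYP1A2 panel member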
T3 sequence (P05177 whole entry): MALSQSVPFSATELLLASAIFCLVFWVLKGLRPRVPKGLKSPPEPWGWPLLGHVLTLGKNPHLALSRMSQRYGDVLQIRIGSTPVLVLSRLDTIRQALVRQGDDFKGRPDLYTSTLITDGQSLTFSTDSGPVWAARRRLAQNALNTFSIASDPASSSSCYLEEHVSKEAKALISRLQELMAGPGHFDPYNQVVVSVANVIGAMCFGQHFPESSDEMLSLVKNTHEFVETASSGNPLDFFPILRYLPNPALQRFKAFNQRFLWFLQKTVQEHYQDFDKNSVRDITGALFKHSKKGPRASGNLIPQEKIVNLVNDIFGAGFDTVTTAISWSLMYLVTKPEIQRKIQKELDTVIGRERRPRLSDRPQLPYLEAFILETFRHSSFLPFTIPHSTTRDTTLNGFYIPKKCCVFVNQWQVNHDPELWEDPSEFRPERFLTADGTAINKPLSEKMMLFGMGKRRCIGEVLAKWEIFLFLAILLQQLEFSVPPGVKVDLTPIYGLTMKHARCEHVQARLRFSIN

[9] = target: T4, Kappa-type opioid receptor (Homo sapiens, UniProt P41145); format: functional
T4 sequence (P41145 whole entry): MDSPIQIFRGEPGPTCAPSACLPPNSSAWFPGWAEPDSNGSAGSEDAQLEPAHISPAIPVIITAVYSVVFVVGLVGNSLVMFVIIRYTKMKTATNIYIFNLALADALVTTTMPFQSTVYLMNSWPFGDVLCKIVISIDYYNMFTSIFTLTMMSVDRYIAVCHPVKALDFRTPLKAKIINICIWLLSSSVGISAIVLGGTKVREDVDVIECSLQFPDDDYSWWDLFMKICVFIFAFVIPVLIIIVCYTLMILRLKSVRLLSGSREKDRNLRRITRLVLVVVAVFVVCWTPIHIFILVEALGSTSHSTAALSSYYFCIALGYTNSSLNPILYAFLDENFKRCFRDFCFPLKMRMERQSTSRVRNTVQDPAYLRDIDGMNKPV

Beta-galactosidase [10] = target: T5, Beta-galactosidase (Escherichia coli, UniProt Q8VNN2); format: functional
T5 sequence (Q8VNN2 whole entry): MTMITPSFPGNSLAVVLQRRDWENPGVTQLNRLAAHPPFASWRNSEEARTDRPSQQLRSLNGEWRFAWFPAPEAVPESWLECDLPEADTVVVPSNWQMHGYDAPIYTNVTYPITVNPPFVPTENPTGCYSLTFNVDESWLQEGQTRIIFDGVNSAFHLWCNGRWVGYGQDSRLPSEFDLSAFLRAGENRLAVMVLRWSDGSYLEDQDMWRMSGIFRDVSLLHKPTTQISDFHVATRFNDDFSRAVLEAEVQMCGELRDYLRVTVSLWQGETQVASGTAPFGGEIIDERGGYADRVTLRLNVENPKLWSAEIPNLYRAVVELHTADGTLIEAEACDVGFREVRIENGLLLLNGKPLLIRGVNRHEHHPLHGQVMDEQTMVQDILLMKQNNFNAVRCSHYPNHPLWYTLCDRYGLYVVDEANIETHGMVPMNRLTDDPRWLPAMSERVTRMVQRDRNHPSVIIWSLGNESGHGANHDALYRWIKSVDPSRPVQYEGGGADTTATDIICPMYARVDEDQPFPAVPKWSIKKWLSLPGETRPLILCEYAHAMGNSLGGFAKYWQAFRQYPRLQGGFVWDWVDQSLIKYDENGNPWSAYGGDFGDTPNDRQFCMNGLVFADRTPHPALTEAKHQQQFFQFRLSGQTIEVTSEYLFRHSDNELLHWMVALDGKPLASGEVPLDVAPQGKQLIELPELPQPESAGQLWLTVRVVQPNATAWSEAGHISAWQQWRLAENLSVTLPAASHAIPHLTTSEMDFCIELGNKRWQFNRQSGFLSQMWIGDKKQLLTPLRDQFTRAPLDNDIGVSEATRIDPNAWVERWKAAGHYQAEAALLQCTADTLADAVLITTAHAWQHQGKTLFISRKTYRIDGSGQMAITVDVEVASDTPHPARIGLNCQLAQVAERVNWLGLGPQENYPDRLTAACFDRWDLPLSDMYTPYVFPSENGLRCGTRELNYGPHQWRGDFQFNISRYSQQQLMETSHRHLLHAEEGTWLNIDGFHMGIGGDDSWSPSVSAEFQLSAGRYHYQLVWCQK

Beta-galactosidase [11] = target: T5, Beta-galactosidase; assay: PubChem AID 485352; format: functional
Beta Lactamase [12] = target: T6, Beta Lactamase (Pseudomonas aeruginosa, UniProt Q932Y6); assay: BLA reporter interference, concentration series – BLA reporter cells, FRET fluorescence, artefact control for TLR9-MyD88 binding inhibitor project, dose response (AID 588341); format: cell-based;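 further: cell based assay in CHO-K1 cells stably expressing beta-lactamase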
T6 sequence (Q932Y6 whole entry): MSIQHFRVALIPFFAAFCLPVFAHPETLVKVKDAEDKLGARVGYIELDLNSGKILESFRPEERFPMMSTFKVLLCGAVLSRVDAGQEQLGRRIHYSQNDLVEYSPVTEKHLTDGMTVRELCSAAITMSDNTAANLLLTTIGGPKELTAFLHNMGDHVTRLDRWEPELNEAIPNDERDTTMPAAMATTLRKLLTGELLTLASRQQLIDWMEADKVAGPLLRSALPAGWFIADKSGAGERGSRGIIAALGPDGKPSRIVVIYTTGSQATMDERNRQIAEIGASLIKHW

Vero = assay: viability of Vero cells under compound – cytotoxicity control for flavivirus capping enzyme inhibitors (AID 588742); format: functional; conditions: Chlorocebus sabaeus
CHO = CHO cell viability loss, potency – luminescence, cytotoxicity control for TLR9-MyD88 binding inhibitor project, dose response (AID 588339); format: functional, cell-based, hamster; conditions: Cricetulus griseus;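 further: CHO cells stably coexpressing TLR9 and MyD88 fusions from primary screen; compound exposure lasted 48 hours before viability readout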
Beta Lactamase [13] = target: T6, Beta Lactamase; assay: BLA reporter interference, concentration series – BLA reporter cells, FRET fluorescence, artefact control for NOD2-RIPK2 interaction inhibitor project, dose response (AID 651552); format: functional, cell-based
[14] = Fluorescence-based cell-based high throughput dose response assay for inhibitors of the interaction of nucleotide-binding oligomerization domain containing 2 (NOD2) and the receptor-interacting serine-threonine kinase 2 (RIPK2).; format: functional; conditions: Homo sapiens
[15] = target: Glucose-6-phosphate 1-dehydrogenase (Homo sapiens, UniProt P11413); assay: inhibition of Homo sapiens G6PD, dose series – biochemical, fluorescence, selectivity assay for P. falciparum G6PD inhibitor project, dose response (AID 504792); format: functional
[16] = target: T7, Delta-type opioid receptor (Homo sapiens, UniProt P41143); assay: HTS Image-Based Screen for Antagonists of the DOR Receptor. [Related pubchem assays (depositor defined):AID1777, AID1785, AID1786, AID2133]; format: functional
T7 sequence (P41143 whole entry): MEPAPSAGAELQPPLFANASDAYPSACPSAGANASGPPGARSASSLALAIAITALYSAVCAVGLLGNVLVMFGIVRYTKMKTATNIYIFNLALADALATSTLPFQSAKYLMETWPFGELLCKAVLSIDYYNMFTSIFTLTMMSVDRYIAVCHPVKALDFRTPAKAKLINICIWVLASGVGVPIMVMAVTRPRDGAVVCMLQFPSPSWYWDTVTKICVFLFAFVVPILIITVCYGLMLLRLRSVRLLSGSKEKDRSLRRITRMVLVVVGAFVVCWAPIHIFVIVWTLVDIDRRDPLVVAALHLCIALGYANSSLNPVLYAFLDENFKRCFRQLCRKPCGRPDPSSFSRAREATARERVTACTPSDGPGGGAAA

[17] = target: T8, Type-1 angiotensin II receptor (Homo sapiens, UniProt P30556); assay: antagonism of angiotensin II type 1 receptor – cell-based, uHTS hits, selectivity assay for APJ receptor antagonist project, dose response (AID 463214); format: functional;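 further: antagonist potency against angiotensin II stimulated AT1 response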
T8 sequence (P30556 whole entry): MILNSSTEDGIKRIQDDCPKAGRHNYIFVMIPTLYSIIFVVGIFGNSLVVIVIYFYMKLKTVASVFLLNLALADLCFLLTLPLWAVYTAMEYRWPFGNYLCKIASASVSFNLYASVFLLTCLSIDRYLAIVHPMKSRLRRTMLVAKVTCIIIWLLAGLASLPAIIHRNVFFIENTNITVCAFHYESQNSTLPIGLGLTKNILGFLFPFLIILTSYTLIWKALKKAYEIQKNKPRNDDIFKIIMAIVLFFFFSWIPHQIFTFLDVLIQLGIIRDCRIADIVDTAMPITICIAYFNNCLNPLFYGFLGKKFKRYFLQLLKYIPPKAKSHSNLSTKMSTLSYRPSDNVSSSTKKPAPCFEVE

Mu-type opioid receptor = Mu-type opioid receptor (Homo sapiens, UniProt P35372); assay: HTS Image-Based Screen for Agonists of the MOR Receptor. [Related pubchem assays (depositor defined):AID1777, AID1785, AID1786, AID2133]; format: functional;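 further: imaging of beta-arrestin GFP recruitment into spots after receptor activation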
Chain of Mu-type opioid receptor (P35372 whole entry): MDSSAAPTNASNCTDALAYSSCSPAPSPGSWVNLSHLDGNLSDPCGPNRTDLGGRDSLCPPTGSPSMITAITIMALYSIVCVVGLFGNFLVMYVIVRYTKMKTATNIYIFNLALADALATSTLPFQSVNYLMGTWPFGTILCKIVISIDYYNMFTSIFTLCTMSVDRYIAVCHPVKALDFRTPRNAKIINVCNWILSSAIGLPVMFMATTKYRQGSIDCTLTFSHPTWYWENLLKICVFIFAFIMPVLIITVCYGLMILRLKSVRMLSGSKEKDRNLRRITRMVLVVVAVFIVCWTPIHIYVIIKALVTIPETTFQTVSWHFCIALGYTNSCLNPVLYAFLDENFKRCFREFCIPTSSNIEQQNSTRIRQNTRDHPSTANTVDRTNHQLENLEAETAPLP

Genome polyprotein = Genome polyprotein (dengue virus type 2, UniProt P29990); assay: flavivirus cap methylation enzyme inhibition – biochemical, confirmation dose response, primary screen (AID 588689); format: functional
Chain of Genome polyprotein (P29990 2492-3391 limits assumed): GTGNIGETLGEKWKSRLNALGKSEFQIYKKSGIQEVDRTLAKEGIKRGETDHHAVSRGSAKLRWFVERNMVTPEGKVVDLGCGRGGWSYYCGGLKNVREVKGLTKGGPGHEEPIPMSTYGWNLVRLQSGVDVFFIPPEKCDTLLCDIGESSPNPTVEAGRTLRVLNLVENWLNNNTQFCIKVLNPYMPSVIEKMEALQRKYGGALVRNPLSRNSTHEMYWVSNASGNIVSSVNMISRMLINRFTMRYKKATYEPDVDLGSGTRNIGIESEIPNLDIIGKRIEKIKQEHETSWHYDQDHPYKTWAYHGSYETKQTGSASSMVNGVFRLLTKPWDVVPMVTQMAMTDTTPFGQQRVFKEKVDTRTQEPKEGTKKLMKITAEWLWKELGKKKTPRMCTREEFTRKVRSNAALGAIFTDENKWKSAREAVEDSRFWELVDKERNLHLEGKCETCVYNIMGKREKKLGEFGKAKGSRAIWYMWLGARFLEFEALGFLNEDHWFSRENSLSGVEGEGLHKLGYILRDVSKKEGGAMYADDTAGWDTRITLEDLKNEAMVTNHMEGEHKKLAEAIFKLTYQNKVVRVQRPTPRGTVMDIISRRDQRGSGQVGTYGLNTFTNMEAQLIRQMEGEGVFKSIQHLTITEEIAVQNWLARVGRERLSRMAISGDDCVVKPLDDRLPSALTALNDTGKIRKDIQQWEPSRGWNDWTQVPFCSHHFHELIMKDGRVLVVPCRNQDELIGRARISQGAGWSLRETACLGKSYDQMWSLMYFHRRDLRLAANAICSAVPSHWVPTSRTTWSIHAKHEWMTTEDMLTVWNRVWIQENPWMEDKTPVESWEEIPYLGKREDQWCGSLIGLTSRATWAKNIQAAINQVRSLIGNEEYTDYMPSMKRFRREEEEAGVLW

[18] = target: T7, Delta-type opioid receptor; assay: HTS Image-Based Screen for Agonists of the DOR Receptor. [Related pubchem assays (depositor defined):AID1777, AID1786, AID2133]; format: functional
[19] = target: T4, Kappa-type opioid receptor; format: functional; remark: listed apart in the source
cells [20] = format: functional, cell-based
cells [21] = format: functional, cell-based; remark: listed apart in the source
Nonstructural protein 1 = Nonstructural protein 1 (Influenza A virus, UniProt Q194T2); format: functional, Influenza A virus (A/California/07/2009(H1N1))
Chain of Nonstructural protein 1 (Q194T2 whole entry, the tested form may be a part): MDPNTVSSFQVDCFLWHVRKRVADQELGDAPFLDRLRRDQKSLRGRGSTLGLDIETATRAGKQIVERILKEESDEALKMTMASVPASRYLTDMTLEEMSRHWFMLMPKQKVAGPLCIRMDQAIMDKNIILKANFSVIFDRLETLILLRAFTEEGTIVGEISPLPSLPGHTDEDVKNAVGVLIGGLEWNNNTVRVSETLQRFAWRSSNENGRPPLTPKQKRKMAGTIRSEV

[22] = target: Sentrin-specific protease 1 (Homo sapiens, UniProt Q9P0U3); assay: Dose response confirmation of small molecule inhibitors of the catalytic domain of the SUMO protease, SENP1 in a FRET assay.; format: functional; conditions: read-out: IC50_Mean
Chain of Sentrin-specific protease 1 (Q9P0U3 whole entry, the tested form may be a part): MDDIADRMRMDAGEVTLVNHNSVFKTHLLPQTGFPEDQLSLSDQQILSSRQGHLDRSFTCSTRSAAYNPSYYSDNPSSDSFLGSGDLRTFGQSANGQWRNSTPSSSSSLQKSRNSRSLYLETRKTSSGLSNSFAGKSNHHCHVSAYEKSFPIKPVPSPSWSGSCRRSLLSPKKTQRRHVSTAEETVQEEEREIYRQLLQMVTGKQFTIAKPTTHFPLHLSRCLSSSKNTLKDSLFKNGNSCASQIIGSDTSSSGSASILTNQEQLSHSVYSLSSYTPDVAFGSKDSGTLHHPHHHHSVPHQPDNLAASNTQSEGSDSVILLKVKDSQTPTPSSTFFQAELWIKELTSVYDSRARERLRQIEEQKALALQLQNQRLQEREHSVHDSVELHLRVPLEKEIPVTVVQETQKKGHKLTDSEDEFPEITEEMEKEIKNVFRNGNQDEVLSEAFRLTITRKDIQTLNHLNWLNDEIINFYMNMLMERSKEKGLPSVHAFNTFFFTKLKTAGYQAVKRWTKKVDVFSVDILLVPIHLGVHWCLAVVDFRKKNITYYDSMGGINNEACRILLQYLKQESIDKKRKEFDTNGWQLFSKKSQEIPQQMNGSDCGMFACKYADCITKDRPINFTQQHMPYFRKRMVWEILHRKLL

[23] = target: T9, Sentrin-specific protease 8 (Homo sapiens, UniProt Q96LD8); format: functional
T9 sequence (Q96LD8 whole entry): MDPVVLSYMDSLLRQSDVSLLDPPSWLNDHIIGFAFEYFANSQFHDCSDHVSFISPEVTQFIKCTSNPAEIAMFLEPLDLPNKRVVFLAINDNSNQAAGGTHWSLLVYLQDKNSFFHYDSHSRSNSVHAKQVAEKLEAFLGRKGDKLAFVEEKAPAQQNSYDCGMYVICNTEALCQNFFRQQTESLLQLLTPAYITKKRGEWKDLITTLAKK

[24] = target: T9, Sentrin-specific protease 8; format: functional; remark: listed apart in the source
[25] = mouse fibroblast viability loss – cell-based, cherry-pick samples, set 2, cytotoxicity control for T. cruzi growth inhibitor project, dose response (AID 651817); format: functional; conditions: NIH3T3
[26] = target: T10, Probable nicotinate-nucleotide adenylyltransferase (Staphylococcus aureus (strain N315), UniProt P65502); format: functional, Staphylococcus aureus subsp. aureus N315;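 on IC50 Mean: confirmatory dose-response retesting of NadD inhibitor hits first found in an ultra-high-throughput screen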
T10 sequence (P65502 whole entry, the tested form may be a part): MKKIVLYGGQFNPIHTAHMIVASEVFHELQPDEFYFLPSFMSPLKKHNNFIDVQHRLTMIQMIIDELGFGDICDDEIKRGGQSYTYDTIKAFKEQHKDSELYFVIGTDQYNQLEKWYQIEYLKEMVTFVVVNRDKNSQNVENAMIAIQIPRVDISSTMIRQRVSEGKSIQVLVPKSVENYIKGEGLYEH

[27] = inhibition of ARNT PAS-B/TACC3 complex formation – biochemical, AlphaScreen, cherry-picked samples, confirmation (AID 651703); format: functional, Homo sapiens;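 further: His-tagged ARNT PAS-B domain paired with GST-TACC3 E629A dimer coactivator fragment; potency of inhibitors that break up the complex and lower AlphaScreen signal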
[28] = target: T10, Probable nicotinate-nucleotide adenylyltransferase; format: functional, Staphylococcus aureus subsp. aureus N315; conditions: read-out: IC50_Mean

For CCCn1c(CC)nc([N+](=O)[O-])c1S(=O)(=O)c1ccccc1, the AC50 [1] was 7.65 µM (active), the EC50 [2] was 5.85 µM (active) and the AC50 (Cytochrome P450 3A4) was 25.1 µM (inconclusive). The CC50 [3] was 13.1 µM (active), the EC50 (Protein RecA) was > 380 µM (inactive) and the AC50 [4] was 4.03 µM (active). The AC50 [5] was > 380 µM (inactive), the AC50 [6] was 24.8 µM (active) and the EC50 [7] was 6.09 µM (active). For the same molecule, the IC50 [8] was 0.996 µM (active) and the AC50 (Cytochrome P450 1A2) was 22.4 µM (inconclusive).

In the case of CCC(=O)OCCNc1cc(Sc2nc3ccccc3s2)c2nonc2c1[N+](=O)[O-], the IC50 [9] is reported as 8.16 µM (active), the EC50 (Beta-galactosidase [10]) is reported as > 31.5 µM (inactive) and the EC50 (Protein RecA) is reported as 0.572 µM (active). For the same molecule, the EC50 (Beta-galactosidase [11]) was > 40 µM (inactive), the IC50 (Beta Lactamase [12]) was 10.5 µM (inactive) and the AC50 [5] was 2.36 µM (active). The CC50 (Vero) was 18.5 µM (active), the IC50 (CHO) was 3.25 µM (active) and the IC50 (Beta Lactamase [13]) was 12.2 µM (inactive). For the same molecule, the IC50 [14] was 1.53 µM (active), the IC50 [15] was > 80 µM (inactive) and the IC50 [16] was > 32 µM (inactive). The IC50 [17] was 3.51 µM (active), the EC50 (Mu-type opioid receptor) was > 32 µM (inactive) and the IC50 (Genome polyprotein) was 29.6 µM (active). For the same molecule, the EC50 [18] was < 0.5 µM (active) and the IC50 [19] was greater than 32 µM.

With CCOC(=O)/C(C#N)=C/C=C1\C=Cc2ccccc2N1CC the EC50 (cells [20]) was > 350 µM (not active), the EC50 (cells [21]) was > 350 µM (not active) and the IC50 (Nonstructural protein 1) was > 100 µM (active). For the same molecule, the IC50 [22] was 6.27 µM (active).

With CC1=NN(c2ccc(C)cc2C)C(=O)C1C(c1cccc(O)c1)C1C(=O)N(c2ccc(C)cc2C)N=C1C (stereo unspecified) the EC50 (Protein RecA) was 0.524 µM (active), the AC50 [5] was 1.09 µM (active) and the IC50 [23] was 30 µM (active). The IC50 [24] was 12.6 µM (active).

With C[C@@H]1CN([C@@H](C)CO)C(=O)Cc2cc(NS(=O)(=O)c3ccc(Cl)cc3)ccc2O[C@H]1CN(C)S(=O)(=O)c1ccc(Cl)cc1 the AC50 [25] was 19.4 µM (active).

In the case of O=C(O)COc1ccccc1/C=N/NC(=O)c1cc(-c2ccc(Cl)cc2)nc2ccccc12, the IC50 [26] is reported as 5.1 µM (active), the AC50 [27] is reported as 75.2 µM (active) and the IC50 (Genome polyprotein) is reported as 39.5 µM (active). The IC50 [28] was 34.2 µM (active).
